The target in one series is T1, mouse 17β-HSD1 (Mus musculus, UniProt P51656).
T1 construct: made in house; host or cells: HEK293 cells, transient transfection; 1,000 g supernatant of the cell lysate
T1 sequence (P51656 1-344): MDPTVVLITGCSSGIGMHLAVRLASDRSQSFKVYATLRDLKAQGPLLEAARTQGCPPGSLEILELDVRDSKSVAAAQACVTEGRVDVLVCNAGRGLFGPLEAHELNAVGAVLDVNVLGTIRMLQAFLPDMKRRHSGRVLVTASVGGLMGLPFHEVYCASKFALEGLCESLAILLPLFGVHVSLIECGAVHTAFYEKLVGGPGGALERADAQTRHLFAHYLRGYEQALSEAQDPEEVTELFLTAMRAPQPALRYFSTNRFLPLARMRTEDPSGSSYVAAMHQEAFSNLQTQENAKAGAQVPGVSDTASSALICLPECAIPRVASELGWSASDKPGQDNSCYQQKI
The series is described as follows: Inhibition of mouse 17β-HSD1 (recombinant, HEK293 lysate). The class given is biochemical. The conditions noted are these: for IC50: read-out: IC50 m17β-HSD1.

The target of a further series is T2, rat 17β-HSD1 (Rattus norvegicus, UniProt P51657).
T2 construct: made in house; host or cells: HEK293 cells, transient transfection; 1,000 g supernatant of the cell lysate
T2 sequence (P51657 1-344): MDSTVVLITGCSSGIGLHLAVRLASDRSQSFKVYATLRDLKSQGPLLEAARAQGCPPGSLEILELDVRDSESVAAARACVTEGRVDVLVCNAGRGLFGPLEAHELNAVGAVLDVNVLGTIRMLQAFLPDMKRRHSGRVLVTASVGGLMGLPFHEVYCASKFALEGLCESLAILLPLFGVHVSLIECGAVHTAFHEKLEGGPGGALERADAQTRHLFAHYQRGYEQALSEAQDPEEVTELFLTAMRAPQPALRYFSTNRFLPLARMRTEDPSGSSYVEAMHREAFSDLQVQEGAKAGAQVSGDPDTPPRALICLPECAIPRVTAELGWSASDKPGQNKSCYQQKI
The series is described as follows: Inhibition of rat 17β-HSD1 (recombinant, HEK293 lysate). The class given is biochemical. The note with it: Cmpd conc. 250 nM; read-out: % Inhibition r17β-HSD1.

For the next series, the target named is T3, mouse 17β-HSD2 (Mus musculus, UniProt P51658).
T3 construct: The pellet fractions containing the microsomal 17β-HSD2 were used for the determination of E1 formation; from tissue; host or cells: mouse liver, microsomal fraction
T3 sequence (P51658 1-381): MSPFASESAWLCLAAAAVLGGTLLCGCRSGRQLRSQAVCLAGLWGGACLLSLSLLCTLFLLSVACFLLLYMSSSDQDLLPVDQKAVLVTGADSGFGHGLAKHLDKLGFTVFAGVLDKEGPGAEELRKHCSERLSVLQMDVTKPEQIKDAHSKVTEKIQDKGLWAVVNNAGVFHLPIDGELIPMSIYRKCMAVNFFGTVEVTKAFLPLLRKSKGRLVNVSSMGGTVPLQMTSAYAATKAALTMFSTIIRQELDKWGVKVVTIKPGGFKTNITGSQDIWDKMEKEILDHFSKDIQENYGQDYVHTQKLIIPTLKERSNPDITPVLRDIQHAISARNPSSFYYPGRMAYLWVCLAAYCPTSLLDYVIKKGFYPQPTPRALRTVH
The series is described as follows: Inhibition of mouse 17β-HSD2 (liver microsomal fraction). The note with it: for inhibition at 0.1 µM: read-out: % inhibition m17β-HSD2 @ 100 nM; for IC50: read-out: IC50 m17β-HSD2; for inhibition at 0.05 µM: read-out: % inhibition m17β-HSD2 @ 50 nM. The class given is biochemical. In general terms: Liver microsomes are a subcellular fraction often used to study metabolism.

Another series concerns the target T4, human 17β-HSD2 (Homo sapiens, UniProt P37059).
T4 construct: 17β-HSD2 was obtained from the microsomal fraction; from tissue; host or cells: human placenta, microsomal fraction
T4 sequence (P37059 1-387): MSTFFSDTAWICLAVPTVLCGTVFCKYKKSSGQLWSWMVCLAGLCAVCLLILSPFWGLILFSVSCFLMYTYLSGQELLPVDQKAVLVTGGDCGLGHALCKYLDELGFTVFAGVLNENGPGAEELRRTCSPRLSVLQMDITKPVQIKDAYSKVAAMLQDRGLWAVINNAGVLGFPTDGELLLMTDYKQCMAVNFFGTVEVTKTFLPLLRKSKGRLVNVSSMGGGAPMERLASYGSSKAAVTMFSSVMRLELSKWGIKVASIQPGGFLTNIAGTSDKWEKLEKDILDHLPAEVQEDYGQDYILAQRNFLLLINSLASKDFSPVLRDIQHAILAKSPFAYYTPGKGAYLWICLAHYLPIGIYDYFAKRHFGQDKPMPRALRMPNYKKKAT
The series is described as follows: Inhibition of human 17β-HSD2 (conversion of [3H]-E2 to E1). The note with it: for inhibition at 0.01 µM: read-out: % inhibition h17β-HSD2 @ 10 nM. The class given is biochemical.

The next series concerns the target T5, human 17β-HSD1 (Homo sapiens, UniProt P14061).
T5 construct: For the partial purification of 17β-HSD1, the cytosolic fraction was precipitated with ammonium sulfate; from tissue; host or cells: human placenta, cytosolic fraction, ammonium sulfate precipitate
T5 sequence (P14061 1-328): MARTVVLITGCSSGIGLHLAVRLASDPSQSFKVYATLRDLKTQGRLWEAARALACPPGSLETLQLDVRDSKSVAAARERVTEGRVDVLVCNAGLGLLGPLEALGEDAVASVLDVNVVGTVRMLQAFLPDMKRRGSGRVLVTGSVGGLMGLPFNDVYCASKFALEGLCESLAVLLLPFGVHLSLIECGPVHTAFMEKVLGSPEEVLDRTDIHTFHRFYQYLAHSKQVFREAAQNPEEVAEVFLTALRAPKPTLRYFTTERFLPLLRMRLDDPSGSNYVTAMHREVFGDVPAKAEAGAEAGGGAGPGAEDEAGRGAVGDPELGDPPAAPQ
The series is described as follows: Inhibition of human 17β-HSD1 (conversion of [3H]-E1 to E2, HPLC radioflow detection). In kind it is biochemical. The conditions noted are these: for IC50: human placental cytosolic enzyme, E1 500 nM, NADH, Tables 1, 4-11, read-out: IC50 [nM] h17β-HSD1; for inhibition at 0.01 µM: read-out: % inhibition h17β-HSD1 @ 10 nM.

The nature of another series: in vitro. The conditions noted are these: human, pooled human liver S9 fraction.
For series [1] the following is noted: human liver S9, 1 mg/mL; unit not given.
[2] abbreviates: read-out: % inhibition m17β-HSD1 @ 1 μM.
Setting [3] is: read-out: Inhibition @ 1 μM m17β-HSD1.
The mark [4] stands for this setting: read-out: % inhibition m17β-HSD2 @ 1 μM.

Like-named read-outs stand apart in the source and are kept apart here.

In general, inhibition refers to how much of the control response was suppressed. Turning to `Nc1cccc(-c2ccc(C(=O)c3c(F)ccc(O)c3F)s2)c1` [Compound 1, [5-(3-Aminophenyl)thiophen-2-yl](2,6-difluoro-3-hydroxyphenyl)methanone], the inhibition at 1 µM on mouse 17β-HSD1 (setting [2]) and at mouse 17β-HSD1 (setting [3]) was 30% each time. The inhibition at […] on rat 17β-HSD1 was determined as 51%.
As a reminder, the IC50 is the concentration at which inhibition is half-maximal. For `COc1c(Cl)cc(-c2ccc(C(=O)c3c(F)ccc(O)c3F)s2)cc1Cn1ccnn1` [Compound 31, [5-(3-Chloro-4-methoxy-5-[1,2,3]triazol-1-ylmethyl-phenyl)-thiophen-2-yl]-(2,6-difluoro-3-hydroxy-phenyl)-methanone], the results for the inhibition at 1 µM at mouse 17β-HSD2 (read-out: Inhibition @ 1 μM m17β-HSD2) and on mouse 17β-HSD1 (setting [3]) were 84% and 32%, respectively. Further, the inhibition at […] at rat 17β-HSD1 is 39%. In addition, the figures for the IC50 at human 17β-HSD2 (read-out: IC50 [nM] h17β-HSD2) and at human 17β-HSD1 were 9 nM and 2.1 nM, respectively.
Regarding `NC(=O)c1cccc(-c2ccc(C(=O)c3cc(F)c(F)c(O)c3F)s2)c1` [Compound 44, 3-(5-(2,4,5-Trifluoro-3-hydroxybenzoyl)thiophen-2-yl)benzamide], the inhibition at 0.1 µM at mouse 17β-HSD2 stood at 19%; at mouse 17β-HSD1 (read-out: % inhibition m17β-HSD1 @ 100 nM, compound 100 nM) it was 10%. Also, the values for the IC50 on human 17β-HSD2 (read-out: IC50 [nM] h17β-HSD2) and on human 17β-HSD1 were 6.8 nM and 22.4 nM, respectively.
By half-life is commonly meant how long it takes for the measured level to halve. Higher therefore signals slow loss. In the case of `COc1c(Cl)cc(-c2ccc(C(=O)c3cc(F)c(F)c(O)c3F)s2)cc1Cl` [Compound 45, (5-(3,5-Dichloro-4-methoxyphenyl)thiophen-2-yl)(2,4,5-trifluoro-3-hydroxyphenyl)methanone], the IC50 on mouse 17β-HSD2 stood at 89 nM; at mouse 17β-HSD1 (recombinant mouse enzyme, E1 10 nM, NADPH) it was 1.73 µM; on human 17β-HSD2 (read-out: IC50 [nM] h17β-HSD2), 2.6 nM; at human 17β-HSD1 it was 0.6 nM. The same molecule had a half-life at 1 µM in the series “in vitro” of 15 min.
Consider `COc1c(C)cc(-c2ccc(C(=O)c3cc(F)c(F)c(O)c3F)s2)cc1C` [Compound 46, (5-(4-Methoxy-3,5-dimethylphenyl)thiophen-2-yl)(2,4,5-trifluoro-3-hydroxyphenyl)methanone], for which the inhibition at 0.1 µM on mouse 17β-HSD2 worked out at 16%. Also, the inhibition at 1 µM at mouse 17β-HSD1 (setting [3]) turned out to be 13.4%. In addition, the half-maximal inhibitory concentration (IC50) is 2.3 nM at human 17β-HSD2 (read-out: IC50 [nM] h17β-HSD2) and 1.2 nM on human 17β-HSD1.
With `O=C(c1ccc(-c2cccc(CO)c2)s1)c1cc(F)c(F)c(O)c1F` [Compound 47, (5-(3-(Hydroxymethyl)phenyl)thiophen-2-yl)(2,4,5-trifluoro-3-hydroxyphenyl)methanone], the IC50 was found to be 260 nM on mouse 17β-HSD2, 4.4 nM at human 17β-HSD2 (read-out: IC50 [nM] h17β-HSD2) and 5.9 nM on human 17β-HSD1. Moreover, the inhibition at 1 µM at mouse 17β-HSD1 (setting [3]) worked out at 13.8%.
Consider `Cn1cnc(S(=O)(=O)Nc2cccc(-c3ccc(C(=O)c4cc(F)c(F)c(O)c4F)s3)c2)c1` [Compound 48, 1-Methyl-N-(3-(5-(2,4,5-trifluoro-3-hydroxybenzoyl)thiophen-2-yl)phenyl)-1H-imidazole-4-sulfonamide], for which the IC50 turned out to be 155 nM at mouse 17β-HSD2 and 21 nM on human 17β-HSD1. The inhibition at 1 µM on mouse 17β-HSD1 (setting [3]) is 12.1%. In “in vitro”, this molecule displayed a half-life at 1 µM of 24.9 min. Moreover, the CLint in series [1] stood at 27.9.
Turning to `Cc1c(N)cccc1-c1ccc(C(=O)c2cc(F)c(F)c(O)c2F)s1` [Compound 58, (5-(3-Amino-2-methylphenyl)thiophen-2-yl)(2,4,5-trifluoro-3-hydroxyphenyl)methanone], the inhibition at 0.05 µM at mouse 17β-HSD2 was 40%. The inhibition at 0.01 µM at human 17β-HSD2 turned out to be 61%; on human 17β-HSD1, 1.1%. In addition, the half-life at 1 µM in the series “in vitro” was found to be 20.8 min. In addition, in series [1], the CLint turned out to be 33.3.
For the molecule `O=C(c1ccc(-c2cccc3[nH]ccc23)s1)c1cc(F)c(F)c(O)c1F` [Compound 62, (5-(1H-Indol-4-yl)thiophen-2-yl)(2,4,5-trifluoro-3-hydroxyphenyl)methanone], the inhibition at 0.05 µM at mouse 17β-HSD2 was 46%. Besides, the inhibition at 0.01 µM on human 17β-HSD2 was 100%; on human 17β-HSD1, 93%. The molecule further had a half-life at 1 µM in the series “in vitro” of 48.9 min. This molecule also had a CLint in series [1] of 14.2.
In the same order, the values of `CS(=O)(=O)Nc1cccc(-c2ccc(C(=O)c3cc(F)c(F)c(O)c3F)s2)c1` [Compound 63, N-(3-(5-(2,4,5-trifluoro-3-hydroxybenzoyl)thiophen-2-yl)phenyl)methanesulfonamide] are 38%, 77%, 53%, 25 min and 27.7.
Take `O=C(c1ccc(-c2ccc(O)cc2)s1)c1cc(F)c(F)c(O)c1F` [Compound 68, (5-(4-Hydroxyphenyl)thiophen-2-yl)(2,4,5-trifluoro-3-hydroxyphenyl)methanone]: at mouse 17β-HSD2, the inhibition at 0.05 µM amounted to 42%. The figures for the inhibition at 0.01 µM at human 17β-HSD2 and at human 17β-HSD1 were 96% and 66%, respectively. The half-life at 1 µM in the series “in vitro” came out at 27.4 min. Besides, the CLint in series [1] stood at 25.3.
For `Cc1cc(-c2ccc(C(=O)c3cccc(O)c3Cl)s2)cc(C)c1O` [Compound 79, (2-Chloro-3-hydroxyphenyl)(5-(4-hydroxy-3,5-dimethylphenyl)thiophen-2-yl)methanone] the same measures were 70%, 64%, 31%, 22 min and 31.6.
Consider `O=C(c1cccc(O)c1)c1ccc(-c2ccc(O)c(Cl)c2)s1` [D, reference compound], for which the inhibition at 1 µM on mouse 17β-HSD2 (setting [4]) stood at 9%; at mouse 17β-HSD1 (setting [2]) it was 42%. Also, the IC50 against human 17β-HSD2 turned out to be 240 nM; on human 17β-HSD1, 5 nM.
Consider `Cc1c(O)cccc1C(=O)c1ccc(-c2ccc(O)c(Cl)c2)s1` [E, reference compound], for which the inhibition at 1 µM at mouse 17β-HSD2 (setting [4]) was 92%; on mouse 17β-HSD1 (setting [2]) it was 14%; at human 17β-HSD2 (read-out: % inhibition h17β-HSD2 @ 1 μM), 93%; on human 17β-HSD1 (read-out: % inhibition h17β-HSD1 @ 1 μM), 76%.
Take `Cc1cc(-c2ccc(C(=O)c3cccc(O)c3C)s2)cc(C)c1O` [G, reference compound]: the 50% inhibitory concentration (IC50) at mouse 17β-HSD2 is 546 nM; at mouse 17β-HSD1 (Table 7, unit μM) it was 35.5 µM; at human 17β-HSD2 (read-out: IC50 [nM] h17β-HSD2), 239 nM; at human 17β-HSD1, 899 nM.

The values above are taken from patent US9884839B2, “Inhibitors of 17Beta-hydroxysteroid dehydrogenases type 1 and type 2” (ElexoPharm GmbH, priority 2014, dated 2018).
